Data from ChEMBL document CHEMBL4665693, “Amentotaxins C-V, Structurally Diverse Diterpenoids from the Leaves and Twigs of the Vulnerable Conifer Amentotaxus argotaenia and Their Cytotoxic Effects” (J Nat Prod, 2020).

Tests used:
Format in all cases: functional, cell-based
MDA-MB-231 = test: Cytotoxicity against human MDA-MB-231 cells assessed as reduction in cell viability incubated for 48 hrs by MTT assay; conditions: MDA-MB-231, 48 h
A549 = test: Cytotoxicity against human A549 cells assessed as reduction in cell viability incubated for 48 hrs by MTT assay; conditions: A549, 48 h
SK-OV-3 = test: Cytotoxicity against human SK-OV-3 cells assessed as reduction in cell viability incubated for 48 hrs by MTT assay; conditions: SK-OV-3, 48 h
Huh-7 = test: Cytotoxicity against human Huh-7 cells assessed as reduction in cell viability incubated for 48 hrs by MTT assay; conditions: Huh-7, 48 h
HeLa = test: Cytotoxicity against human HeLa cells assessed as reduction in cell viability incubated for 48 hrs by MTT assay
HCT-116 = test: Cytotoxicity against human HCT-116 cells assessed as reduction in cell viability incubated for 48 hrs by MTT assay; conditions: HCT-116, 48 h

Compound | IC50 (MDA-MB-231) [µM] | IC50 (A549) [µM] | IC50 (SK-OV-3) [µM] | IC50 (Huh-7) [µM] | IC50 (HeLa) [µM] | IC50 (HCT-116) [µM]
C=C1C[C@@]23C[C@@H]1CC[C@H]2[C@]1(C)CCC[C@@](C)(C(=O)O)[C@H]1[C@@H](O)[C@@H]3O | > 10 | > 10 | > 10 | > 10 | > 10 | > 10
C=C1[C@H](O)C[C@@H]2[C@@](C)(CO)CCC[C@@]2(C)[C@@H]1C/C=C(\C)C=O | 1.5 | > 10 | > 10 | > 10 | > 10 | > 10
CC(=O)O[C@H]1C(=O)[C@@]2(C)[C@H]([C@H](OC(=O)c3ccccc3)[C@]3(O)C[C@H](OC(=O)[C@H](O)[C@@H](NC(=O)c4ccccc4)c4ccccc4)C(C)=C1C3(C)C)[C@]1(OC(C)=O)CO[C@@H]1C[C@@H]2O [PACLITAXEL] | – | – | – | 0.005 | 0.004 | –
CC(C)c1cc2c(cc1O)[C@@]1(C)CC[C@H](O)C(C)(C)[C@@H]1CC2=O | 1.6 | > 10 | > 10 | > 10 | > 10 | > 10
C=C1C(=O)[C@]23CC[C@@H]4[C@@](C)(CO)CCC[C@@]4(C)[C@@H]2CC[C@H]1C3 | 10 | 8.1 | 6.9 | 9.7 | > 10 | 2.9
C=C1[C@H](O)C[C@@H]2[C@@](C)(CO)CCC[C@@]2(C)[C@@H]1C[C@H]1OC(=O)C=C1C | 1.6 | > 10 | > 10 | > 10 | > 10 | > 10
C=C1C(=O)[C@]23CC[C@H]4[C@@](C)(CC[C@@H](O)[C@@]45CO5)[C@@H]2CC[C@H]1C3 | 6.8 | 9.8 | 2.9 | 4.1 | 5.1 | 1.9
C=C1[C@H](O)C[C@@H]2[C@@](C)(CO)CCC[C@@]2(C)[C@@H]1/C=C/C(C)=O | 3 | > 10 | > 10 | > 10 | > 10 | > 10
